According to article PMC8559926, “Design, synthesis and biological evaluation of N-oxide derivatives with potent in vivo antileishmanial activity” (PLoS ONE, 2021):
Where “and” joins values, the source holds several entries; their conditions need not be identical. Equal values may be shown once.

Columns and labels:
[1] = system: L. infantum intracellular amastigotes; experiment: Anti-amastigote activity in infected murine peritoneal macrophages; type: cell-based; conditions: Leishmania infantum, Peritoneal macrophage, 24 h, read-out: EC50 - Effective Concentration that kills 50% of L. infantum amastigote forms
Method: (§1) The antileishmanial activity against L. infantum intracellular amastigotes, according to the following methodology. […] Were used infected macrophages as negative control and amphotericin B as the positive control.
(§2) After incubation, cells were fixed with methanol and Giemsa stained. The effective concentration to 50% amastigotes death (EC) was obtained by counting 100 macrophages in duplicate, in two independent experiments. The values were obtained by non-linear regression on Bioestat® software, and results were expressed in mean ± standard deviation.

[2] = target: T1, recombinant Leishmania cysteine protease LmCPB2.8ΔCTE (CPB) (Leishmania mexicana, UniProt P36400); experiment: Enzymatic inhibition of recombinant CPB (Z-FR-AMC substrate); type: biochemical
T1 construct: The ORF that codes for the Leishmania mexicana CPB, lacking the C terminal extension (CPB2.8ΔCTE); made in house; host or cells: Pichia pastoris X-33
T1 sequence (P36400 126-341, stated change not applied): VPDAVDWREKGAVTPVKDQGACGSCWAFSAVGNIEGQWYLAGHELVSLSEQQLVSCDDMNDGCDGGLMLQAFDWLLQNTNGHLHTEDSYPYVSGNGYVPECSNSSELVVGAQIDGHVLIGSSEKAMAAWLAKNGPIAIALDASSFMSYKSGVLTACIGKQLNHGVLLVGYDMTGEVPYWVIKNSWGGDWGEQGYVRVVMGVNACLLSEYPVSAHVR
Method: The concentration of the active recombinant CPB expressed in Pichia pastoris supernatant was determined by active site titration with N-(trans-Epoxysuccinyl)-L-leucine 4-guanidinobutylamide E-64 (CalBiochem) that was found 1 μM. The active enzyme represented about 80% of the total recombinant enzyme.
Compounds were dissolved in DMSO to a final concentration of 20 μM. The assays were performed in dark 96 well-plates, containing 200 μL of 100 mM sodium acetate buffer (pH 5.5), 200 mM NaCl, 0.01% Triton-X100, 2 nM enzyme, various concentrations of inhibitor, and 5 μM of the substrate Z-FR-AMC (Calbiochem). The final concentration of DMSO was 1% (v/v). The enzyme was pre-incubated at 30°C for 2 minutes before the inhibitor was added, waited 2 minutes and after this incubation, the reaction was started by the addition of the substrate, Z-FR-AMC. The fluorescence was monitored at 380 nm excitation and 460 nm emission filters for 2 minutes at 30°C in an Infinite 200 PRO microplate reader (Tecan, Männedorf, Switzerland). The residual activity was measured by the ratio between enzyme + substrate and enzyme + inhibitor + substrate. […] Results were expressed in mean ± standard deviation of two independent replicates using Bioestat Software.

[3] = Quantification of nitrite by the Griess reaction (NO release); conditions: compounds at 10^-4 M, 5 mM of L-Cys (1:50), 1 h, 37°C
Method: The levels of nitrite resulting from the oxidation of NO in the aqueous medium were quantified through the Griess reaction after incubation with an excess of L-cysteine (1:50) according to previously published methods. The experiments were performed in triplicate and repeated three times on different days. […] The results were expressed as a percentage of nitrite (% NO2^−; mol/mol). Statistical analysis was carried out using ANOVA followed by Tukey’s Multiple Comparison Test at a significance level of p < 0.05.
The ability of all synthesized compounds (4a-x) and (14a-g) to release NO was evaluated by indirect determination of NO2^− production. The compounds at 10^−4 M were incubated for 1 h at 37°C in the presence of L-cysteine (1:50) and the produced NO2^− was determined through Griess reaction (Table 1).

[4] = Anti-amastigote activity in infected murine peritoneal macrophages; type: cell-based, L. infantum; conditions: Swiss, mouse; CC50 macrophages / EC50 L. infantum amastigotes; read-out: SI - Selective Index (CC50/EC50)
Method: as §1, §2

Nc1ccc(C(=O)N/N=C/c2ccc3no[n+]([O-])c3c2)cc1 [Compound 4s]
EC50 [1]: > 10 µM
IC50 [2]: > 20 µM

CC(C)(C)c1ccc(C(=O)N/N=C/c2ccc(O)cc2)cc1 [Compound 14g, (E)-4-(tert-butyl)-N’-(4-hydroxybenzylidene)benzohydrazide]
EC50 [1]: > 10 µM
IC50 [2]: 7.6 ± 2.1 µM

O=C(N/N=C/c1ccc2no[n+]([O-])c2c1)c1ccccc1O [Compound 4t]
EC50 [1]: > 10 µM
IC50 [2]: 4.2 ± 0.2 µM

O=C(N/N=C/c1ccc2no[n+]([O-])c2c1)c1cccc(O)c1 [Compound 4u]
EC50 [1]: > 10 µM
IC50 [2]: 11.7 ± 0.5 µM

Nc1ccc(C(=O)N/N=C/c2ccc(Oc3no[n+]([O-])c3-c3ccccc3)cc2)cc1 [Compound 4c, (E)-4-(4-((2-(4-aminobenzoyl)hydrazono)methyl)phenoxy)-3-phenyl-1,2,5-oxadiazole 2-oxide]
% NO2- (mol/mol) [3]: 9.3 ± 0.8 %
selectivity ratio at 24 h [4]: 17
EC50 [1]: 7.2 ± 0.2 µM
IC50 [2]: 2 ± 0.1 µM

O=C(N/N=C/c1ccc(Oc2no[n+]([O-])c2-c2ccccc2)cc1)c1ccc(O)cc1 [Compound 4b, (E)-4-(4-((2-(4-hydroxybenzoyl)hydrazono)methyl)phenoxy)-3-phenyl-1,2,5-oxadiazole 2-oxide]
% NO2- (mol/mol) [3]: 8.8 ± 0.6 %
selectivity ratio at 24 h [4]: 54
EC50 [1]: 3.1 ± 0.2 µM
IC50 [2]: 3.2 ± 0.3 µM

NC(=O)c1c(COc2ccc(/C=N/NC(=O)c3ccc([N+](=O)[O-])cc3)cc2)no[n+]1[O-] [Compound 4l, (E)-3-carbamoyl-4-((4-((2-(4-nitrobenzoyl)hydrazono)methyl)phenoxy)methyl)-1,2,5-oxadiazole 2-oxide]
% NO2- (mol/mol) [3]: 11.8 ± 1.1 %
EC50 [1]: 7.7 ± 2.1 µM
IC50 [2]: 10.8 ± 2.3 µM

O=[N+]([O-])O[C@H]1CO[C@H]2[C@@H]1OC[C@H]2O[N+](=O)[O-] [DNS, isosorbide dinitrate, reference compound]
% NO2- (mol/mol) [3]: 10.5% and 10.5 ± 0.9 ^*^a %

O=C(N/N=C/c1ccc(Oc2no[n+]([O-])c2-c2ccccc2)cc1)c1ccccc1 [Compound 4a, (E)-4-(4-((2-benzoylhydrazono)methyl)phenoxy)-3-phenyl-1,2,5-oxadiazole 2-oxide]
% NO2- (mol/mol) [3]: 9.0 ± 0.7 %
selectivity ratio at 24 h [4]: > 357
EC50 [1]: 1.4 ± 0.1 µM
IC50 [2]: 1.5 ± 0.1 µM

O=C(N/N=C/c1ccc2no[n+]([O-])c2c1)c1ccccc1 [Compound 4p]
EC50 [1]: > 10 µM
IC50 [2]: > 20 µM

NC(=O)c1c(COc2ccc(/C=N/NC(=O)c3ccccc3)cc2)no[n+]1[O-] [Compound 4h, (E)-4-((4-((2-benzoylhydrazono)methyl)phenoxy)methyl)-3-carbamoyl-1,2,5-oxadiazole 2-oxide]
% NO2- (mol/mol) [3]: 12.1 ± 1.2 %
selectivity ratio at 24 h [4]: > 161
EC50 [1]: 3.1 ± 0.2 µM
IC50 [2]: 8.8 ± 0.2 µM

O=C(N/N=C/c1ccc(Oc2no[n+]([O-])c2-c2ccccc2)cc1)c1ccc([N+](=O)[O-])cc1 [Compound 4d, (E)-4-(4-((2-(4-nitrobenzoyl)hydrazono)methyl)phenoxy)-3-phenyl-1,2,5-oxadiazole 2-oxide]
% NO2- (mol/mol) [3]: 8.6 ± 0.8 %
selectivity ratio at 24 h [4]: > 128
EC50 [1]: 3.9 ± 0.4 µM
IC50 [2]: 1.8 ± 0.1 µM

NC(=S)N/N=C/c1ccc(Oc2no[n+]([O-])c2-c2ccccc2)cc1 [Compound 4g, (E)-4-(4-((2-carbamothioylhydrazono)methyl)phenoxy)-3-phenyl-1,2,5-oxadiazole 2-oxide]
% NO2- (mol/mol) [3]: 9.0 ± 0.6 %
selectivity ratio at 24 h [4]: > 227
EC50 [1]: 2.2 ± 0.3 µM
IC50 [2]: 6.5 ± 1 µM

NC(=O)c1c(COc2ccc(/C=N/NC(=O)c3ccc(O)cc3)cc2)no[n+]1[O-] [Compound 4i, (E)-3-carbamoyl-4-((4-((2-(4-hydroxybenzoyl)hydrazono)methyl)phenoxy)methyl)-1,2,5-oxadiazole 2-oxide]
melting point: 201 to 203 °C
% NO2- (mol/mol) [3]: 12.3 ± 0.9 %
EC50 [1]: > 10 µM
IC50 [2]: 5.7 ± 0.4 µM
